Results on one compound are retold here after US20060110790A1, “Expression system for large functional proteins” (priority 2002, published 2006).

The structures appear in SMILES notation.

In assay [1] the target is full-length ABCR (Homo sapiens, UniProt P78363). The assay is described as follows: Retinal-stimulated ATPase activity of purified protein reconstituted in lipid vesicles. Format: biochemical. Also noted: Membranes from transfected cells expressing either full-length ABCR (lanes 1 & 2) or co-expressing the N and C halves; expressed in transfected cells; host or cells: transfected cells (COS-1 or EBNA293). Particulars: expressed in COS-1 cells, purified on Rim 3F4 column, 50 μM [α32P]ATP. The method, then: Membranes (from two 10 cm dishes) were solubilized in 0.5 ml of 1% Triton-X100 in Buffer A (140 mM NaCl, 20 mM Tris-HCl, pH 7.4) for 20 min on ice. For ATPase assays, the membrane preparation step was omitted and the cell suspension was solubilized directly in Buffer B (10 mg/ml soybean phospholipids, 10% glycerol, 1 mM dithiothreitol, 100 mM NaCl, 3 mM MgCl2, 50 mM NaHEPES, pH 7.4) containing 18 mM CHAPS. The supernatant after a 10 min centrifugation at 40,000 rpm (TLA100.4 rotor) was mixed with 50 μl Rim3F4 Sepharose 2B for 1 h at 4° C. The beads were washed 6 times in Buffer A containing 0.2% Triton X-100 or Buffer B containing 10 mM CHAPS and eluted with 4% SDS (for electrophoresis) or 0.2 mg/ml Rim3F4 peptide (for reconstitution and determination of ATPase activity). […]
ATPase activity was measured as described previously (Ahn, J., Wong, J. T., and Molday, R. S. (2000) J Biol Chem 275(27), 20399-405) using 50 μM [α^32P]ATP and thin layer chromatography. The all-trans retinal concentration was determined spectrophotometrically (λ383 nm=42.88 mM^−1 cm^−1). […]
ATPase Activity of Expressed N and C Halves—The basal and retinal activated ATPase activity of full-length ABCR and the N and C halves individually or co-expressed in COS-1 cells was determined after immunoaffinity purification and reconstitution into lipid vesicles. […]

In assay [2] the target is T1, ABCR (Homo sapiens, UniProt P78363).
T1 construct: Membranes from transfected cells expressing either full-length ABCR (lanes 1 & 2) or co-expressing the N and C halves; expressed in transfected cells; host or cells: transfected cells (COS-1 or EBNA293)
The assay is described as follows: 8-azido-ATP/ADP nucleotide trapping in membranes from transfected cells. Format: binding. The settings on record: 50 μM all-trans retinal, 5 μM 8-azido-[α-32P]ATP, 37° C. The method, then:
FIG. 7. Nucleotide trapping by ABCR and co-expressed N and C halves. A. Effect of orthovanadate on nucleotide trapping. Membranes from transfected cells were incubated with 5 μM 8-azido-[α-^32P]ATP at 37° C., washed, and tightly bound nucleotides were UV crosslinked. Lane 1, full-length ABCR; lane 2, full-length ABCR incubated with 800 μM orthovanadate; lane 3, co-expressed N and C halves; lane 4, co-expressed N- and C-halves incubated with 800 μM orthovanadate. B. Effect of temperature and retinal on nucleotide trapping. Lane 1, full-length ABCR labeled at 0° C.; lane 2, full-length ABCR labeled at 37° C.; lane 3, full-length ABCR labeled at 37° C. in the presence of 50 μM all-trans retinal; lane 4, co-expressed N and C halves labeled at 0° C.; lane 5, co-expressed N and C halves labeled at 37° C.; lane 6, co-expressed N and C halves labeled at 37° C. in the presence of 50 μM all-trans retinal.
8-Azido-ATP Trapping—Membranes were incubated with 5 μM 8-azido-[α-^32P]ATP in 50 μl of labeling buffer with or without 800 μM sodium orthovanadate for 10 min at 37° C. All-trans retinal and 50 μM DTT were added where indicated. Binding was stopped by the addition of ice-cold 20 mM Tris-HCl, pH 7.4, the membranes were collected by centrifugation and washed one more time. Samples exposed to orthovanadate were washed in the presence of 800 μM orthovanadate. […]

Chain of full-length ABCR (P78363 whole entry): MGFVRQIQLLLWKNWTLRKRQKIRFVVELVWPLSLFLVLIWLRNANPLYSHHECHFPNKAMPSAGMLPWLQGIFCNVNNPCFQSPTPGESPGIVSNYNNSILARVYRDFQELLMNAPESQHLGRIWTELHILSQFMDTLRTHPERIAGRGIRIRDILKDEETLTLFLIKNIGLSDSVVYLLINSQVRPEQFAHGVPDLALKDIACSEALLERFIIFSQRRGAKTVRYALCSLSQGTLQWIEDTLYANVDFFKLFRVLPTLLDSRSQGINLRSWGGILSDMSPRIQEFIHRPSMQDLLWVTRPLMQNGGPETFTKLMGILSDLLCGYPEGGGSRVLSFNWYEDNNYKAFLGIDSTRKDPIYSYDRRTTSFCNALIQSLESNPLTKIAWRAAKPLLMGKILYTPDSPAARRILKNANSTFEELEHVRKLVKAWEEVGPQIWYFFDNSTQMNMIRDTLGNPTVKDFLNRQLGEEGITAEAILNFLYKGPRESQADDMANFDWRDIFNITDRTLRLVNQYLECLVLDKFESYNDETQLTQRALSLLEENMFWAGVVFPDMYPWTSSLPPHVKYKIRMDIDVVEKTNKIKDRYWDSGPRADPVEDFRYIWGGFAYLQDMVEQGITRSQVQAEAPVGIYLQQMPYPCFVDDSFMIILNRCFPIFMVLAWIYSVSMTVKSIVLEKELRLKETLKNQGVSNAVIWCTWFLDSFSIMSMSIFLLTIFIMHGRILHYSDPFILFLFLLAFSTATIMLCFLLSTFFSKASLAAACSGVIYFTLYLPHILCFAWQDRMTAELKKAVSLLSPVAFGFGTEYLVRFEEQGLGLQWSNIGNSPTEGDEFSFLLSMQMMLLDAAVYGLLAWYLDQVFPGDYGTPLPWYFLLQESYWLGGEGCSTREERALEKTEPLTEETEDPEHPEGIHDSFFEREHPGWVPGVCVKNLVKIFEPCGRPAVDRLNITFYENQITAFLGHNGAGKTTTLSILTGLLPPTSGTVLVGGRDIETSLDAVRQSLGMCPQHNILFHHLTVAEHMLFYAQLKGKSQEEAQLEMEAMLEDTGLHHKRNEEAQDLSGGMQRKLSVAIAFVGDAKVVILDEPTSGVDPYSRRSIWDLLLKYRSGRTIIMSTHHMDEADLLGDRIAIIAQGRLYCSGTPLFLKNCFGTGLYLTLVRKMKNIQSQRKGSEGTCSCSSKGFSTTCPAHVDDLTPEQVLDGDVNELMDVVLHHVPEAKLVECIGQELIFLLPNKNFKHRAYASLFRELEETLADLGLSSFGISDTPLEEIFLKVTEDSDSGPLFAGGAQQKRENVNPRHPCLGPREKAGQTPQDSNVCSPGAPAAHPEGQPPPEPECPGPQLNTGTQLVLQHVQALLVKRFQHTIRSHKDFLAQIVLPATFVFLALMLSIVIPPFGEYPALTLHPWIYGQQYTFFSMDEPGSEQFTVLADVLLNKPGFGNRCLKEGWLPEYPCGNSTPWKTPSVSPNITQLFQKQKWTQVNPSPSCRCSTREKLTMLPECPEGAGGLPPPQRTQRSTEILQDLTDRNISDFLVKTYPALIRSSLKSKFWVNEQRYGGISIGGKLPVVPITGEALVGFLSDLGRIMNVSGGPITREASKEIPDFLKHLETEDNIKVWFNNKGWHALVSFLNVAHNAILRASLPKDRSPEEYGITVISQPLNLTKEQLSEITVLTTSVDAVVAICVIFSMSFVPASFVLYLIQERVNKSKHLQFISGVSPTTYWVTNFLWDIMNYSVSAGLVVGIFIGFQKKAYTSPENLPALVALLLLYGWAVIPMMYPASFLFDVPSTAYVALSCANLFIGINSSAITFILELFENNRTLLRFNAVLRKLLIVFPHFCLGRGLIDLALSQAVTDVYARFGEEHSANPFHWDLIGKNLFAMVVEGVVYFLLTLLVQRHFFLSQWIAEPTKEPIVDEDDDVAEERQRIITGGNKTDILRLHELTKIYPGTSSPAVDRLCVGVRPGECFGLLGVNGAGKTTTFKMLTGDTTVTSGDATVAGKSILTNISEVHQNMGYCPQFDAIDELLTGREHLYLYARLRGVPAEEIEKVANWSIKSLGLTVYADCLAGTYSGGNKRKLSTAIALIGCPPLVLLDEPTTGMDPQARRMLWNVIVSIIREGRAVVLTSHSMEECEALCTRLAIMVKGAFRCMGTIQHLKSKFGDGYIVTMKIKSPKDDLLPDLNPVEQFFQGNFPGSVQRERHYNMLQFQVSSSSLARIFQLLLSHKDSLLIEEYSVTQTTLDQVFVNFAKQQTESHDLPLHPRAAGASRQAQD
T1 sequence (P78363 whole entry): as above

For the compound `CC1=C(/C=C/C(C)=C/C=C/C(C)=C/C=O)C(C)(C)CCC1` [all-trans retinal], the “stimulation of ATPase activity” value in assay [1] is given as 1-2 fold. For the same compound, the “effect on 8-azido ATP/ADP trapping” value in assay [2] was “not dependent on sodium orthovanadate or influenced”.
